Source: patent US12459951B2, “Compounds that interact with RAS superfamily proteins for treatment of cancers, inflammatory diseases, rasopathies, and fibrotic disease” (SHY Therapeutics, LLC, priority 2022, dated 2025)

Columns and labels:
[1] = Kinetic Solubility Assay in pH 7.4 Buffer + 2% DMSO; assay type: physicochemical; conditions: phosphate-buffered saline pH 7.4 with 2% DMSO, aqueous buffer, kinetic from dmso stock, 25° C., two hours
Description: Biological Example 9: Kinetic Solubility
Kinetic solubility assay in pH 7.4 Buffer+2% DMSO (“Kinetic Solubility Assay) was performed according to the following protocol: Briefly, using a 20 mM stock solution of the tested compounds in 100% DMSO, dilutions were prepared to a theoretical concentration of 400 μM in duplicates in phosphate-buffered saline pH 7.4 (138 mM NaCl, 2.7 mM KCl, 10 mM K-phosphate) with 2% final DMSO. The tested compounds dilutions in PBS were further allowed to equilibrate at 25° C. on a thermostatic shaker for two hours and then filtered through HTS filter plates using a vacuum manifold. The filtrates of the test compounds were diluted 2-fold with acetonitrile with 2% DMSO before measuring.
In parallel, using a 20 mM stock solution of the tested compounds in 100% DMSO, dilutions were prepared to theoretical concentrations of 0 μM (blank), 10 μM, 25 μM, 50 μM, 100 μM, and 200 μM in 50% acetonitrile/PBS with 2% final DMSO to generate calibration curves. Ondansetron was used as a reference compound to control proper assay performance. 200 μL of each sample was transferred to a 96-well plate and measured in the 230-550 nm range with a 5 nm step.
The concentrations of compounds in PBS filtrate are calculated using a dedicated Microsoft Excel calculation script. Proper absorbance wavelengths for calculations are selected for each compound manually based on absorbance maximums (absolute absorbance unit values for the minimum and maximum concentration points within the 0-3 OD range). Each final dataset is visually evaluated by the operator, and goodness of fit (R2) is calculated for each calibration curve. The effective range of this assay is approximately 2-400 μM and the compounds returning values close to the upper limit of the range may have higher actual solubility (e.g., 5′-deoxy-5-fluorouridine).
Table 8 show kinetic solubility data for selected compounds tested in the Kinetic Solubility assay described above.

IL6 = experiment: IL-6 Quantification Assay (ELISA), LPS-stimulated RAW 264.7; assay type: cell-based; design: inhibition: dose or concentration left out as unconfirmed; conditions: Mus musculus, RAW264.7; read-out: IL-6: % inh.
[2] = Mouse Liver Microsome Metabolic Stability Assay; assay type: in vitro ADME; conditions: pH 7.4, Mouse liver microsomes, 37° C., NADPH, read-out: t½
Description: Biological Example 10: Assessment of Metabolic Stability in Mouse Liver Microsomes
Metabolic Stability Assay: Microsomal incubations were carried out in 96-well plates in 5 aliquots of 30 μL each (one for each time point). Liver microsomal incubation medium comprised of phosphate buffer (100 mM, pH 7.4), MgCl2 (3.3 mM), NADPH (3 mM), glucose-6-phosphate (5.3 mM), glucose-6-phosphate dehydrogenase (0.67 units/ml) with 0.42 mg of liver microsomal protein per mL. In the control reactions the NADPH-cofactor system was substituted with phosphate buffer. Test compounds (2 μM, final solvent concentration 1.6%) were incubated with microsomes at 37° C., shaking at 100 rpm. Each reaction was performed in duplicates. Five time points over 40 minutes were analyzed. The reactions were stopped by adding 5 volumes of methanol containing internal standard to incubation aliquots, followed by protein sedimentation by centrifuging at 5500 rpm for 4 minutes. Supernatants were analyzed using the HPLC system coupled with tandem mass spectrometer.
The elimination constant (kel), half-life (t1/2) and intrinsic clearance (Clint) were determined in plot of […] versus time, using linear regression analysis:
In order to indicate the quality of the linear regression analysis, the R (correlation coefficient) values are provided. In some cases, the last time point is excluded from the calculations to ensure acceptable logarithmic linearity of decay.
Table 9 show metabolic stability data for selected compounds tested in the Mouse Liver Microsome Metabolic Stability assay described above.

Erk1/2 phosphorylation = experiment: Erk1/2 Phosphorylation Assay (western blot), Panc-1; assay type: cell-based, human; conditions: at 10 μM, * = activation
Method in brief: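 KRas G12D Panc-1 cells were treated 6 h at 37° C with compound at 10 μM or serial dilutions for IC50 (0.3% DMSO). In method 1, cells were serum-starved overnight (0.5% FBS) and then given 1.5 ng/ml EGF for 15 min. In method 2, cells stayed in 10% FBS without stimulation. Lysate phospho-Erk1/2 (Thr202/Tyr204) was read by western blot.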

Structure (SMILES)	solubility at 2 h [1]	half-life at 2 µM [2]	inhibition (IL6)	% inh of Erk1/2 phosphorylation in Panc-1 (Erk1/2 phosphorylation)
Cc1c(-c2ccn(C)n2)cn2nc(-c3nccn3C)nc(Nc3ccccn3)c12 [Compound 118, 5-Methyl-2-(1-methyl-1H-imidazol-2-yl)-6-(1-methyl-1H-pyrazol-3-yl)-N-(pyridin-2-yl)pyrrolo[2,1-f][1,2,4]triazin-4-amine]	> 30 µM		25 to 49%	D* (85-100% activation)
Cc1c(-c2ccn(C)n2)cn2nc(-c3nccn3C)nc(Nc3cc(C4CC4)[nH]n3)c12 [Compound 104, N-(5-Cyclopropyl-1H-pyrazol-3-yl)-5-methyl-2-(1-methyl-1H-imidazol-2-yl)-6-(1-methyl-1H-pyrazol-3-yl)pyrrolo[2,1-f][1,2,4]triazin-4-amine]	< 10 µM	> 10 min	75 to 100%	D* (85-100% activation)
COc1cc(Nc2nc(-c3nccn3C)nn3cc(-c4ccn(C(C)C)n4)c(C)c23)ncn1 [Compound 6, 6-(1-Isopropyl-1H-pyrazol-3-yl)-N-(6-methoxypyrimidin-4-yl)-5-methyl-2-(1-methyl-1H-imidazol-2-yl)pyrrolo[2,1-f][1,2,4]triazin-4-amine]	< 10 µM	> 10 min	75 to 100%	0 (0% inhibition)
Cc1c(-c2ccn(C)n2)cn2nc(-c3nccn3C)nc(Nc3ccncn3)c12.Cl [Compound 116, 5-Methyl-2-(1-methyl-1H-imidazol-2-yl)-6-(1-methyl-1H-pyrazol-3-yl)-N-(pyrimidin-4-yl)pyrrolo[2,1-f][1,2,4]triazin-4-amine hydrochloride salt]	10 to 30 µM		25 to 49%	D* (85-100% activation)
COc1ccnc(Nc2nc(-c3nccn3C)nn3cc(-c4ccn(C)n4)c(C)c23)c1 [Compound 102, N-(4-Methoxypyridin-2-yl)-5-methyl-2-(1-methyl-1H-imidazol-2-yl)-6-(1-methyl-1H-pyrazol-3-yl)pyrrolo[2,1-f][1,2,4]triazin-4-amine]	> 30 µM	> 10 min	75 to 100%	A* (1-25% activation)
Cc1c(-c2ccn(C)n2)cn2nc(-c3nccn3C)nc(Nc3cc4n(n3)CCC4)c12 [Compound 100, N-(5,6-Dihydro-4H-pyrrolo[1,2-b]pyrazol-2-yl)-5-methyl-2-(1-methyl-1H-imidazol-2-yl)-6-(1-methyl-1H-pyrazol-3-yl)pyrrolo[2,1-f][1,2,4]triazin-4-amine]	10 to 30 µM		50 to 74%	C* (46-84% activation)
Cc1c(-c2ccn(C)n2)cn2nc(-c3nccn3C)nc(Nc3cc(OC4CC4)ccn3)c12 [Compound 126, N-(4-Cyclopropoxypyridin-2-yl)-5-methyl-2-(1-methyl-1H-imidazol-2-yl)-6-(1-methyl-1H-pyrazol-3-yl)pyrrolo[2,1-f][1,2,4]triazin-4-amine]		> 10 min	25 to 49%	D* (85-100% activation)

The next lines start with results.

solubility at 2 h [1]	half-life at 2 µM [2]	Structure (SMILES)	inhibition (IL6)	% inh of Erk1/2 phosphorylation in Panc-1 (Erk1/2 phosphorylation)
10 to 30 µM	> 10 min	CCOc1ccnc(Nc2nc(-c3nccn3C)nn3cc(-c4ccn(C5CC5)n4)c(C)c23)c1 [Compound 141, 6-(1-Cyclopropyl-1H-pyrazol-3-yl)-N-(4-ethoxypyridin-2-yl)-5-methyl-2-(1-methyl-1H-imidazol-2-yl)pyrrolo[2,1-f][1,2,4]triazin-4-amine]	25 to 49%	B (26-49% inhibition)
10 to 30 µM	> 10 min	Cc1c(-c2ccn(C3CC3)n2)cn2nc(-c3nccn3C)nc(Nc3cc(OC4CC4)ccn3)c12 [Compound 142, N-(4-Cyclopropoxypyridin-2-yl)-6-(1-cyclopropyl-1H-pyrazol-3-yl)-5-methyl-2-(1-methyl-1H-imidazol-2-yl)pyrrolo[2,1-f][1,2,4]triazin-4-amine]	25 to 49%	C (50-84% inhibition)
	< 10 min	Cc1c(-c2ccn(C)n2)cn2nc(-c3nccn3C)nc(Nc3cc(OC(F)(F)F)ccn3)c12 [Compound 127, 5-Methyl-2-(1-methyl-1H-imidazol-2-yl)-6-(1-methyl-1H-pyrazol-3-yl)-N-(4-(trifluoromethoxy)pyridin-2-yl)pyrrolo[2,1-f][1,2,4]triazin-4-amine]	50 to 74%	D* (85-100% activation)
< 10 µM	> 10 min	Cc1ccnc(Nc2nc(-c3nccn3C)nn3cc(-c4ccn(C5CC5)n4)c(C)c23)c1 [Compound 144, 6-(1-Cyclopropyl-1H-pyrazol-3-yl)-5-methyl-2-(1-methyl-1H-imidazol-2-yl)-N-(4-methylpyridin-2-yl)pyrrolo[2,1-f][1,2,4]triazin-4-amine]	25 to 49%	A (1-25% inhibition)
	> 10 min	Cc1c(-c2cccnc2)cn2nc(-c3nccn3C)nc(Nc3ccncn3)c12 [Compound 156, 5-Methyl-2-(1-methyl-1H-imidazol-2-yl)-6-(pyridin-3-yl)-N-(pyrimidin-4-yl)pyrrolo[2,1-f][1,2,4]triazin-4-amine]	1 to 24%	D* (85-100% activation)
	> 10 min	Cc1c(-c2ccn(C)n2)cn2nc(-c3nccn3C)nc(Nc3cc(OC(F)F)ccn3)c12 [Compound 128, N-(4-(Difluoromethoxy)pyridin-2-yl)-5-methyl-2-(1-methyl-1H-imidazol-2-yl)-6-(1-methyl-1H-pyrazol-3-yl)pyrrolo[2,1-f][1,2,4]triazin-4-amine]	25 to 49%	D* (85-100% activation)
< 10 µM	> 10 min	COc1ccnc(Nc2nc(-c3nccn3C)nn3cc(-c4cccnc4)c(C)c23)c1 [Compound 157, N-(4-Methoxy-pyridin-2-yl)-5-methyl-2-(1-methyl-1H-imidazol-2-yl)-6-(pyridin-3-yl)pyrrolo[2,1-f][1,2,4]triazin-4-amine]	1 to 24%	C* (46-84% activation)
10 to 30 µM	> 10 min	COc1ccnc(Nc2nc(-c3nccn3C)nn3cc(-c4ccn(C5CC5)n4)c(C)c23)c1 [Compound 137, 6-(1-Cyclopropyl-1H-pyrazol-3-yl)-N-(4-methoxypyridin-2-yl)-5-methyl-2-(1-methyl-1H-imidazol-2-yl)pyrrolo[2,1-f][1,2,4]triazin-4-amine]	1 to 24%	B* (26-49% activation)
	> 10 min	Cc1c(-c2ccn(C)n2)cn2nc(-c3nccn3C)nc(Nc3cc(OCC(F)(F)F)ccn3)c12 [Compound 129, 5-Methyl-2-(1-methyl-1H-imidazol-2-yl)-6-(1-methyl-1H-pyrazol-3-yl)-N-(4-(2,2,2-trifluoroethoxy)pyridin-2-yl)pyrrolo[2,1-f][1,2,4]triazin-4-amine]	50 to 74%	D* (85-100% activation)
